Peptide text beside a SMILES is read from it.
Legend:
[1] = tested on: despair or resignation behavior in adult male rats; experiment: Behavioral despair test (forced swimming test)
Method: The protective effect against resignation may be determined by the forced swimming test in rats.
The peptide to be tested is administered after the pre-test session and before the test. The immobility time of the rats is recorded for 5 min during the pre-test and the test.
The test includes a pre-test session of 15 minutes and a test session of 5 minutes, after 24 hours. During the pre-test session, the behavior of the rat is recorded during the first 5 minutes. At the end of the pre-test, the rat is removed from the water, delicately dried, treated and then put back in his dwelling cage. During the test, the rat is again deposited in water and its behavior is recorded for 5 minutes.
The reference substance was 8-OH-DOAT (0.5 mg/kg) which is a 5-HT1a agonist or imipramine (20 mg/kg), which is an inhibitor of serotonin reuptake.

[2] = tested on: colic inflammation in rats; experiment: Colic inflammation model (intrarectal TNBS); format: in vivo, rat; details: opiorphin 1 mg/kg i.v.
[3] = tested on: peristaltism in rats
[4] = tested on: tail-flick response in male Wistar rats
Method: Male Wistar rats (Harlan, France) weighing 250 to 280 g at the beginning of the experiment were used in this study. After 7-day acclimatization period, they were weighed and randomly housed according to the treatment groups in a room with a 12 h alternating light/dark cycle (21:00 p.m./9:00 a.m.) and controlled temperature (21±1° C.) and hygrometry (50±5%). Food and water were available ad libidum. They were experimentally only tested once.
(§1) All drugs were administered in a volume of 1 ml/kg body weight.
The tail-flick test evaluating the time required to respond to acute thermal stimulus preferentially reflects nociceptive spinal reflex. A standardized tail-flick apparatus (Harvard Apparatus LTD, Edenbridge, England) with a radiant heat source connected to an automated tail-flick analgesymeter was used. Rats were accustomed to the situation of contention for two 2-min sessions, the day prior the test. On experimental day, they were gently restrained by hand so the radiant heat source was focused onto the distal dorsal surface of the tail. […] Under these experimental conditions and in reference to morphine, a 5 sec cut-off time was established to prevent tissue damage. […] For tolerance induction rats received daily intravenous administration of freshly prepared solutions during seven consecutive days.
The results were expressed as mean±SEM. The significance of differences between groups was evaluated using the Kruskal-Wallis one-way analysis of variance by ranks (KWT, a non-parametric method) for comparison between several independent variables across the experimental conditions. […] The non-parametric Wilcoxon matched pairs test (WT) was used to compare two paired variables with repeated measures in each treatment group. For all statistical evaluations, the level of significance was set at P<0.05. All statistical analyses were carried out using the computer software StatView®5 statistical package (SAS, Institute, Inc., USA).

[5] = tested on: anxiety in Wistar male rats
[6] = tested on: pharmaco-dependency behavior in rats; details: opiorphin at effective analgesic doses (1 mg/kg), repeated administration
[7] = tested on: memorization in rats
From the text: With the passive avoidance test in rats it is possible to evaluate the degree of memorization of the animal during the application of an aversive stimulus from which it cannot escape. […] The first compartment where the rat is deposited at the beginning of the test is illuminated and communicates through a sash door with a dark compartment and the floor of which includes an electrified grid. The passive avoidance test includes a pre-test session where the animals receive an electric shock (2 mA, 2s) when it enters the dark compartment, and a 3 minute test session after 24 hours, where the behavior of the animal is analyzed for its long term retention of the learned task (the grid of the dark compartment is no longer electrified in the test).

[8] = tested on: acute pain behavioral response in male rats
[9] = tested on: locomotor activity in rats; details: opiorphin 1 mg/kg i.v.; vs control
Method: The measured variables are the number of upright standing movements (vertical activity) and the number of passages into the two compartments (horizontal activity) during a period of 3 min. The reference molecule is imipramine (20 mg/kg).

[10] = tested on: chronic pain behavioral response in rats; experiment: Formalin test (chronic chemical inflammatory pain)
Method: The reference substance is morphine, at a dose of 2 mg/kg.
The antagonistic effect of the following ligands was analyzed: an opioid antagonist with a wide spectrum (Naloxone, 3 mg/kg) and selective antagonists of the opioid μ-receptors (CTOP, 0.8 mg/kg), δ-receptors (Naltrindole, 10 mg/kg) and κ-receptors (Nor-Binaltorphimine, 5 mg/kg), respectively.
as §1

CCCN(CCC)C1CCc2cccc(O)c2C1 (stereo not drawn) [8-OH-DPAT, reference compound]
immobility time in the test vs control group (Mann-Whitney) ([1]; 8-OH-DPAT 0.5 mg/kg): significantly less than that of the rats from the control group
immobility time, change between pre-test and test (Wilcoxon) ([1]; 8-OH-DPAT 0.5 mg/kg): significantly decreases between the pre-test and the test

CC(C)Cc1ccc(C(C)C(=O)O)cc1 (stereo not drawn) [ibuprofen, reference compound]
protection of the colic wall from inflammation [2]: protect the colic wall from inflammation

CN1CC[C@]23c4c5ccc(O)c4O[C@H]2[C@@H](O)C=C[C@H]3[C@H]1C5 [morphine, reference compound]
inhibition of peristaltism as compared with control rats ([3]; rats treated with morphine): 80-90%
morphine-induced increase vs Opiorphin-induced response, day 7 ([4]; 15 min post-injection, after 7 days chronic treatment): tended to be lower than the response induced by Opiorphin

NC(=O)CC[C@H](N)C(=O)N[C@@H](CCCN=C(N)N)C(=O)N[C@@H](Cc1ccccc1)C(=O)N[C@@H](CO)C(=O)N[C@@H](CCCN=C(N)N)C(=O)O [opiorphin, QRFSR] (H-QRFSR-OH)
overall anxiety score, Average ± SEM ([5]; Opiorphin 1 mg/kg i.v., 15 minutes before the test, n=8): 25.94 ± 3.74
anxiolytic activity relatively to the control ([5]; opiorphin 1 mg/kg i.v.): did not show any anxiolytic activity
pharmaco-dependence [6]: does not cause significant pharmaco-dependence
latency time for entering the dark compartment, Test ([7]; 24 hours after, Opiorphin 1 mg/kg i.v. given immediately after pre-test, average ±SEM, n=8): 158.5 ± 20.5
amnesia effect ([7]; opiorphin 1 mg/kg i.v.): does not show any amnesia effect
anti-peristaltic effect ([3]; rats treated with opiorphin): not observed
antinociceptive activity compared with morphine ([8]; opiorphin 1 mg/kg i.v. vs morphine 6 mg/kg i.p.): equivalent
antinociceptive activity ([8]; opiorphin 1 mg/kg i.v., n=8-12 rats/group): potent antinociceptive activity
protection of the colic wall from inflammation [2]: does not protect the colic wall from inflammation
hyperactivity effect [9]: nor any significant hyperactivity effect
analgesic effect of opiorphin in the presence of Naloxone ([10]; Naloxone 3 mg/kg): abolished
prolonged analgesic profile, dose effect ([10]; duration of licking of the paw and number of spasms, n=8 rats/group): significant dose-dependent effect
dose of maximum anti-nociceptive potency ([10]; i.v., duration of licking of the paw and number of spasms, 60 min): 1 to 2 mg/kg
analgesic effect of opiorphin in the presence of CTPA ([10]; specific antagonist of μ-opioid receptors, 0.8 mg/kg): abolished
response latencies vs morphine-treated rats ([4]; 15, 25 and 60 minutes after treatment, Opiorphin 2 mg/kg i.v. vs morphine 1 mg/kg i.v.): did not significantly differ
tolerance to maximal antinociceptive effect ([4]; Opiorphin 2 mg/kg i.v. once daily for 7 days): does not induce the development of tolerance
dose of maximal antinociceptive effect ([4]; preliminary data, dose-dependent responses): 2 mg/kg
effects of opiorphin in the presence of Naltrindole ([1]; Naltrindole 10 mg/kg, specific antagonist of δ-opioid receptors): abolished
dose of maximum antidepressant potency ([1]; administered intravenously, adult male rats): 1 mg/kg
immobility time in the test vs control group (Mann-Whitney) ([1]; opiorphin 0.5 mg/kg i.v.): tends to be less than that of the rats from the control group
immobility time in the test vs control group (Mann-Whitney) ([1]; opiorphin 1 mg/kg i.v.): significantly less than that of the rats from the control group
immobility time, change between pre-test and test (Wilcoxon) ([1]; opiorphin 1 mg/kg i.v.): significantly decreases between the pre-test and the test
effect in the behavioral despair model ([1]; opiorphin 1 mg/kg i.v., second series): induces an antidepressant effect in addition to a psychostimulant effect
immobility time in the test vs control group (Mann-Whitney) ([1]; opiorphin 2 mg/kg i.v.): significantly less than that of the rats from the control group
immobility time, change between pre-test and test (Wilcoxon) ([1]; opiorphin 2 mg/kg i.v.): significantly decreases between the pre-test and the test
